Paper PMC4880976, “Pharmacologic rationale for the NK1R antagonist, aprepitant as adjunctive therapy in HIV” (Journal of Translational Medicine, 2016)
Where no end group is shown, it is not given here.

Legend:
[1] = Table 1, literature values, no reference given; cited from earlier work
[2] = cited from earlier work
[3] = tested on: GABAA receptor; set-up: method as in PMID 23702798, PMID 25113527; settings: cited from earlier work
[4] = biological target: 5-HT2A receptor; set-up: method as in PMID 23702798, PMID 25113527; settings: partial agonist; cited from earlier work
[5] = tested on: serotonin reuptake; set-up: method as in PMID 23702798, PMID 25113527; settings: at 10 μM; cited from earlier work
[6] = tested on: vesicular monoamine transporter 2 (VMAT2); set-up: method as in PMID 23702798, PMID 25113527; settings: at 10 μM; cited from earlier work
[7] = tested on: dopamine reuptake; set-up: method as in PMID 23702798, PMID 25113527; settings: at 10 μM; cited from earlier work
[8] = tested on: HIV; settings: Table 1, reference not given; cited from earlier work
[9] = tested on: 5-HT2C receptor; set-up: method as in PMID 23702798, PMID 25113527; settings: cited from earlier work
[10] = tested on: ATP-dependent K+ currents of mouse pancreatic B-cells; settings: in the absence of albumin; Table 1, reference not given; read-out: concentration blocking currents half maximally; cited from earlier work
[11] = tested on: human PBMC; assay: SP dependent cytokine and chemokine production by PBMC, multiplex assay; assay type: cell-based; settings: SP 10 µM, 24 h
Procedure: (§1) For cytokine and PD-1 assessment experiments freshly isolated peripheral blood mononuclear cell (PBMC) purchased from the Human Immunology Core Facility of The University of Pennsylvania School of Medicine (Philadelphia, PA) were cultured in RPMI medium supplemented with 10 % FBS overnight. Some cultures were treated with SP (10 µM) aprepitant (10 µM) or DMSO (0.001 %, vehicle for aprepitant). Cytokine concentrations were measured in supernatants using multiplex assay 24 h after SP/aprepitant treatment (see below). For PD-1 expression SP and aprepitant were added at day 0 and PD-1 expression was monitored daily for up to 8 days using flow cytometry.
Concentrations of pro-inflammatory cytokines and chemokines in supernatants of human PBMC were measured using human Cytokine/Chemokine Magnetic Bead Panel—Premixed 30 Plex, HCYTMAG-60K-PX30 (Millipore, Billerica, MA, USA) as recommended by the manufacturers.
Fig. 5 SP dependent up regulation of cytokine and chemokine production by human PBMC* is inhibited by aprepitant. *Freshly isolated PBMC from normal donors were incubated for 24 h with SP and/or Aprepitant (10 µM each) as indicated. Control cultures were either left untreated of incubated with DMSO (vehicle for aprepitant). Pro-inflammatory markers were measured in supernatants using MILLIPORE Human Cytokine/Chemokine Magnetic Bead Panel.

[12] = tested on: CD163 cleavage in human monocytes; assay: sCD163 release from human monocytes, ELISA; assay type: cell-based; settings: SP, time- and dose-dependent, p < 0.001
Procedure: sCD163 was measured by ELISA (Trillium Diagnostics, Brewer, Maine, USA) according to manufacturer’s recommendations.
Fig. 7 SP induces cleavage of CD163 in monocytes. sCD163 was measured by ELISA in the supernatant of freshly isolated human monocytes treated with SP and aprepitant as indicated. a Time course of cells treated with varying doses of SP as indicated. *p < 0.001 control versus 5 and 10 μM of SP. b Cells were pre-incubated with aprepitant (10 μM) for 30 min and then treated with SP (5 μM) for 60 min. *p < 0.001 SP versus control, p = 0.004 SP versus SP + aprepitant. Results are presented as mean ± SD from three independent experiments

[13] = tested on: PD-1 expression on CD3+CD4+ cells; assay: PD-1 expression on CD4+ T-cells in PBMC, flow cytometry; assay type: cell-based, human
Procedure: as §1
Fig. 6 Aprepitant blocks SP induced PD-1 expression on CD4+ T-cells. PBMC were treated for 7 days with SP and aprepitant as indicated. PD-1 expression was measured by flow cytometry on CD3+CD4+ cells and expressed as percentage of PD-1 positive cells. a Results from representative experiment are shown. First two columns show gaiting strategy. […] Median (spread): control 14.7 (11.1), SP treated 38.4 (60.6), SP + aprepitant treated 7.8 (6.0) TEXT PRINTED IN THE PICTURE: (a) SP: PD1+ 67.1 | (a) SP + aprepitant: PD1+ 9.53 DOUBTS OF THE COPYIST ABOUT THIS PICTURE: SP + aprepitant, PD1+ 9.53: the sign after PD1 looks like '+' or '−' because it touches the gate line / SP + aprepitant, 9.53: small print, so the digits 9, 5 and 3 are not fully certain / The rows 'no staining' (PD1+ 0.079) and 'control' (PD1+ 11.4) were left out because they are not substances

## CCC[C@@H]1C[C@@H](C(=O)N[C@@H]([C@H]2O[C@H](SC)[C@H](O)[C@@H](O)[C@H]2O)[C@H](C)Cl)N(C)C1 [Clindamycin]
[1]
  PB %: Clindamycin (95 %)

## CN1C(=O)CN=C(c2ccccc2)c2cc(Cl)ccc21 [Diazepam]
[2]; Table 1 footnote, no reference given
  target concentrations: < 1 µg/mL
[1]
  PB %: Diazepam+ (98.5 %)

## O=C1Nc2ccc(Cl)cc2[C@@](C#CC2CC2)(C(F)(F)F)O1 [Efavirenz]
[3]
  action at GABAA receptor: positive allosteric modulator
[4]
  Ki: 2.2 µM
[5]
  serotonin reuptake inhibition: 50%
[6]
  VMAT2 inhibition: 60%
[7]
  dopamine reuptake inhibition: 75%
[8]
  Plasma concentrations that appear to suppress HIV replication: Plasma concentrations above 2 mg/L appear to suppress HIV replication
[9]
  action at 5-HT2C receptor: ligand

## NS(=O)(=O)c1cc(C(=O)O)c(NCc2ccco2)cc1Cl [Furosemide]
[1]
  PB %: Furosemide (91–99 %)

## O=C1NC(=O)C(c2ccccc2)(c2ccccc2)N1 [Phenytoin]
[2]; in vivo
  clinically effective serum trough concentration: The clinically effective serum trough concentration is usually 40 to 80 µmol/L.

## CCCCNC(=O)NS(=O)(=O)c1ccc(C)cc1 [Tolbutamide]
[10]
  IC50: 4.1 µM

## CCCC(CCC)C(=O)O [Valproic Acid]
[2]; in vivo
  therapeutic range (total): The therapeutic range for valproic acid (total) is 50–125 µg/mL

## substance P (RPKPQQFFGLM; ends and bridges not checked; UniProt P20366 58-68, looked up) [SP, substance P, ligand of its preferring receptor NK1R]
[11]
  production of G-CSF, IL-6, IL-8, TNFα and MIP-1α: upregulated
  production of MCP-1: increased production
[12]
  release of sCD163: fast release
[13]; SP treated, 7 days, five experiments, control 14.7 (11.1)
  percentage of PD-1 positive CD4 cells, median (spread): 38.4 (60.6) %
[13]; incubation of PBMC with SP, 6–8 days, p = 0.03
  PD-1 expression by CD4 T-cells: increased PD-1 expression
